Test systems include U251 CNS; OVCAR-4 ovarian; NCI-H23 lung; MDA-MB-435; MCF7 breast; NCI/ADR-RES ovarian; 786-0 renal; K-562 leukemia; A498 renal; UACC-62 melanoma.
Holding throughout (assay): NCI anticancer screen, dose series, 48 h

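The compound was tested at five concentrations on cells cultured in 96-well plates, with a 48-hour exposure period. GI50 marks 50% less growth. TGI: concentration producing complete growth inhibition.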

For the molecule `CCn1c(-c2nonc2N)nc2cnc(Oc3cccc(NC(=O)c4ccc(OCCN5CCOCC5)cc4)c3)cc21`, the GI50 is 7.17 µM in the experiment on U251 CNS; 4.48 µM with OVCAR-4 ovarian; 4.9 µM with NCI-H23 lung; 7.39 µM with MDA-MB-435; 3.87 µM with MCF7 breast; 6.1 µM in the experiment with NCI/ADR-RES ovarian. The GI50 with 786-0 renal was 3.49 µM; with K-562 leukemia, 7.38 µM; in the experiment on A498 renal, 1.05 µM; with UACC-62 melanoma, 6.39 µM. Further, the TGI in the experiment with U251 CNS, with OVCAR-4 ovarian, in the experiment on NCI-H23 lung, in the experiment on MDA-MB-435, in the experiment on MCF7 breast and in the experiment with NCI/ADR-RES ovarian was over 25 µM each time. Further, the TGI was over 25 µM with 786-0 renal, over 25 µM in the experiment with K-562 leukemia, over 23.7 µM in the experiment on A498 renal and over 25 µM with UACC-62 melanoma.

Consider `COc1ccc(-c2nn3ncccc3c2-c2ccnc(Nc3ccc(F)c(F)c3)n2)cc1`, for which the GI50 with U251 CNS was 10.3 µM; with OVCAR-4 ovarian it was 12.4 µM; in the experiment with NCI-H23 lung it was 11.5 µM; with MDA-MB-435 it was 7.39 µM; with MCF7 breast it was 10.6 µM; with NCI/ADR-RES ovarian it was 8.27 µM. In addition, the GI50 in the experiment on 786-0 renal was 11.1 µM; in the experiment on K-562 leukemia it was 6.57 µM; with A498 renal, 3.96 µM; with UACC-62 melanoma, 7.12 µM. Also, the TGI in the experiment with U251 CNS, in the experiment on OVCAR-4 ovarian, in the experiment on NCI-H23 lung, with MDA-MB-435, in the experiment with MCF7 breast and in the experiment on NCI/ADR-RES ovarian was over 25 µM throughout. Besides, the TGI with 786-0 renal was over 25 µM; in the experiment with K-562 leukemia, over 25 µM; with A498 renal, over 23 µM; in the experiment on UACC-62 melanoma it was over 25 µM.

`O=C(O)c1c2c(c(O)c3c1CN(C1CCCCC1)CO3)OCN(C1CCCCC1)C2`: the TGI in the experiment with U251 CNS is over 100 µM; with OVCAR-4 ovarian, over 100 µM; in the experiment with NCI-H23 lung, over 100 µM; in the experiment with MDA-MB-435 it was over 100 µM; with MCF7 breast, 39.2 µM; in the experiment with NCI/ADR-RES ovarian, over 100 µM. Also, the TGI in the experiment on 786-0 renal, in the experiment with K-562 leukemia, with A498 renal and in the experiment on UACC-62 melanoma was over 100 µM throughout.

As for `C=C(C)[C@@H]1CC[C@]2(C(=O)OC)CC[C@]3(C)[C@H](CC[C@@H]4[C@@](C)(CCc5nn[nH]n5)[C@H](C(=C)C)CC[C@]43C)[C@@H]12`, the GI50 in the experiment on U251 CNS is 15.4 µM; with OVCAR-4 ovarian it was 14.7 µM; in the experiment on NCI-H23 lung, 16.4 µM; in the experiment with MDA-MB-435 it was 17.6 µM; in the experiment with MCF7 breast it was 17 µM; in the experiment on NCI/ADR-RES ovarian it was 20.8 µM. For the same molecule, the GI50 in the experiment on 786-0 renal is 53.4 µM; in the experiment on K-562 leukemia, 18.4 µM; in the experiment on A498 renal, 22.4 µM; with UACC-62 melanoma, 5.35 µM. For the same molecule, the TGI with U251 CNS came to 32.4 µM; in the experiment on OVCAR-4 ovarian it was 48.1 µM; in the experiment with NCI-H23 lung, 39.4 µM; in the experiment on MDA-MB-435 it was 44.2 µM; in the experiment with MCF7 breast, 70.5 µM; in the experiment with NCI/ADR-RES ovarian, 73.2 µM. The TGI in the experiment on 786-0 renal was over 100 µM; in the experiment on K-562 leukemia, over 100 µM; in the experiment on A498 renal, 60.7 µM; with UACC-62 melanoma, 19.6 µM.

As for `Cc1cc(NC(=O)NCCCOc2ccc(N3C(N)=NC(N)=NC3(C)C)cc2Cl)ccc1S(=O)(=O)F`, the GI50 is 0.492 µM in the experiment on U251 CNS; 2.34 µM in the experiment on OVCAR-4 ovarian; 0.951 µM in the experiment with NCI-H23 lung; 0.577 µM with MDA-MB-435; 0.614 µM with MCF7 breast; over 100 µM in the experiment on NCI/ADR-RES ovarian. For the same molecule, the GI50 in the experiment on 786-0 renal was 2.46 µM; in the experiment on K-562 leukemia, 0.318 µM; with A498 renal it was 7.94 µM; with UACC-62 melanoma it was 0.608 µM. Also, the TGI in the experiment with U251 CNS is 19.7 µM; with OVCAR-4 ovarian, over 100 µM; in the experiment with NCI-H23 lung it was over 66.8 µM; in the experiment on MDA-MB-435, 33.2 µM; in the experiment on MCF7 breast, 22.5 µM; in the experiment on NCI/ADR-RES ovarian, over 100 µM. Further, the TGI in the experiment on 786-0 renal was over 100 µM; in the experiment with K-562 leukemia it was over 100 µM; in the experiment with A498 renal, 99.9 µM; in the experiment with UACC-62 melanoma it was 24.9 µM.

On to `CC(C)(C)CNCCO`, for which the TGI in the experiment on U251 CNS, with OVCAR-4 ovarian, in the experiment with NCI-H23 lung, in the experiment with MDA-MB-435, in the experiment with MCF7 breast and with NCI/ADR-RES ovarian was over 100 µM in each case. In addition, the TGI with 786-0 renal, with K-562 leukemia, in the experiment on A498 renal and in the experiment with UACC-62 melanoma was over 100 µM throughout.

Regarding `COCCn1c(Nc2ccc(C(=O)NO)cc2)nc2ccccc21`, the GI50 in the experiment on U251 CNS is 3.99 µM; in the experiment with OVCAR-4 ovarian it was 16.1 µM; with NCI-H23 lung it was 4.43 µM; with MDA-MB-435 it was 2.89 µM; in the experiment with MCF7 breast, 5.45 µM; in the experiment on NCI/ADR-RES ovarian, 1.3 µM. Also, the GI50 was 10.5 µM in the experiment on 786-0 renal, 3.03 µM in the experiment with K-562 leukemia, 2.64 µM in the experiment with A498 renal and 2.06 µM with UACC-62 melanoma. Further, the TGI was 18.6 µM in the experiment on U251 CNS; over 100 µM with OVCAR-4 ovarian; 16.3 µM with NCI-H23 lung; 11.4 µM with MDA-MB-435; over 100 µM in the experiment on MCF7 breast; 4.84 µM in the experiment with NCI/ADR-RES ovarian. Moreover, the TGI in the experiment on 786-0 renal was 23.5 µM; with K-562 leukemia, over 100 µM; in the experiment with A498 renal, 9.17 µM; with UACC-62 melanoma, 10.5 µM.

As for `Cc1ccc(NC(=O)c2ccoc2)cc1-c1ccc(C(=O)NCC2CC2)cc1`, the GI50 with U251 CNS is over 25 µM; in the experiment on OVCAR-4 ovarian, over 18.8 µM; with NCI-H23 lung, over 25 µM; with MDA-MB-435 it was over 25 µM; in the experiment with MCF7 breast, over 16.1 µM; with NCI/ADR-RES ovarian it was over 18.8 µM. Besides, the GI50 in the experiment with 786-0 renal is over 25 µM; with K-562 leukemia it was over 18.6 µM; with A498 renal, over 11.3 µM; in the experiment with UACC-62 melanoma, 13.9 µM. Besides, the TGI with U251 CNS, with OVCAR-4 ovarian, in the experiment on NCI-H23 lung, in the experiment on MDA-MB-435, in the experiment with MCF7 breast and in the experiment with NCI/ADR-RES ovarian was over 25 µM in each case. The TGI with 786-0 renal, with K-562 leukemia, in the experiment with A498 renal and with UACC-62 melanoma was over 25 µM each time.

(Values after PubChem BioAssay (NCI).)
